Each molecule was assayed against T1, Kv7.2/7.3 (Homo sapiens, UniProt O43525+O43526) (assay: Kv7.2/7.3 activation assay, QPatch planar patch-clamp, single concentration screen). Conditions: Kv7.2/Kv7.3 co-expressing HEK cells, compound 3 μM, steady-state current at end of 2 s pulse to −30 mV.
T1 construct: host or cells: HEK cells, tetracycline-inducible expression
Assay type: cell-based
Parameters: key: <1.2-fold increase over baseline (−); +/−: as a range from <1.2-fold increase over baseline (−) up to >6-fold increase over baseline (+++); as a range from <1.2-fold increase over baseline (−) up to >6-fold increase over baseline (+++); as a range from <1.2-fold increase over baseline (−) up to >6-fold increase over baseline (+++); >6-fold increase over baseline (+++)
Procedure: The ability of compounds to potentiate K-currents in Kv7.2/7.3 containing HEK cells was assessed using planar patch-clamp on the QPatch automated screening platform.
Cell Line: The hKv7.2/7.3 cell line was obtained from Chantest (Cleveland, OH 44128) cat. #CT6147. These HEK cells will express the Kv7.2/7.3 ion channels when induced.
Cell Culture: Cells were maintained in a media containing DMEM/F12; 50/50 (GIBCO cat. #11330), 10% Fetal Bovine Serum (FBS) (GIBCO cat. #26140), 100 units/mL Penicillin-Streptomycin (GIBCO cat. #15140), 0.005 mg/mL Blasticidin (INVIVOGEN cat. #ant-bl-1), 0.5 mg/mL Geneticin (GIBCO cat. #10131), 0.1 mg/ml Zeocin (GIBCO cat. #R25001). Cells used in the electrophysiology assay were maintained in a media without Blasticidin, Geneticin and Zeocin for 2 days and channel expression was induced by adding tetracycline (BIOLINE cat. #BIO-87030) at a final concentration of 1 mg/mL. Cells were grown in T-175 flask to ˜75% confluency. Currents were recorded 24 hours after channel induction.
Compound Plates: Test compounds were prepared by performing serial dilutions on a Biomek NX^P (BECKMAN COULTER). Final dilutions were made in external recording solution with a final DMSO concentration of 0.1% DMSO. For single concentration screens each plate had 10 μM retigabine as a positive control and 0.1% DMSO as a negative control.
Electrophysiology: On the day of the experiment cells were washed with Hank's Balanced Salt Solution (HBBS) (GIBCO cat. #14175) and harvested with Tryple (GIBCO cat. #12604). Cells were then centrifuged at 2000 rpm for 5 minutes and resuspended in CHO-S-SFM (GIBCO cat. #12052) at ˜3×10^6 cells/mL. Cells were stirred for 30 minutes before experiments were started. External recording solution contained (in mM): NaCl (145), KCl (4), CaCl2 (2), MgCl2 (1), HEPES (10) and Glucose (10); pH was adjusted to 7.4 with NaOH and the osmolarity was adjusted to 300-305 mOsM with sucrose if necessary. Internal solution contained (in mM): KCl (125), KF (10), EGTA (5), Na2ATP (5), MgCl2 (3.2), HEPES (5); pH was adjusted to 7.2 with KOH and the osmolarity was adjusted to 298-302 mOsM with sucrose.
Potassium channel activity was measured on the QPatch HTX (Sophion Bioscience) using QPlates with 48-wells/plate. Each cell was taken as an independent experiment and only one compound was tested per well. Potassium channel activity was elicited by holding at −80 mV and stepping to −30 mV for 2 s followed by a 100 ms pulse to −120 mV.
Single concentration screen: Baseline conditions were obtained by recording 5 sweeps in the external solution only, this was repeated for three applications of the external solution. […] The steady-state current at the end of the 2 s pulse to −30 mV was measured to determine the fold increase from baseline.

Row | Compound | Kv7.2/7.3 Activity: increase in current over baseline
1 | CC(O)(CC(=O)Nc1nc2ccc(C#N)cc2n1C1CCC1)c1ccccc1 (stereo not drawn) [Example 17, N-(6-cyano-1-cyclobutyl-1H-benzo[d]imidazol-2-yl)-3-hydroxy-3-phenylbutanamide] | ++
2 | C[C@H](C(=O)Nc1nc2ccc(C#N)cc2n1C1CCC1)[C@@](C)(O)c1ccccc1 [Example 18, (2S,3R)-N-(6-cyano-1-cyclobutyl-1H-benzo[d]imidazol-2-yl)-3-hydroxy-2-methyl-3-phenylbutanamide] | +
3 | C[C@H](C(=O)Nc1nc2ccc(C#N)cc2n1C1CCC1)[C@](C)(O)c1ccccc1 [Example 19, (2S,3S)-N-(6-cyano-1-cyclobutyl-1H-benzo[d]imidazol-2-yl)-3-hydroxy-2-methyl-3-phenylbutanamide] | +
4 | C[C@](O)(CC(=O)Nc1nc2ccc(C#N)cc2n1C1CCC1)c1ccccn1 [Example 20, (S)-N-(6-cyano-1-cyclobutyl-1H-benzo[d]imidazol-2-yl)-3-hydroxy-3-(pyridin-2-yl)butanamide] | +
5 | C[C@](O)(CC(=O)Nc1nc2ccc(C#N)cc2n1C1CCC1)c1cccnc1 [Example 21, (S)-N-(6-cyano-1-cyclobutyl-1H-benzo[d]imidazol-2-yl)-3-hydroxy-3-(pyridin-3-yl)butanamide] | +/−
6 | C[C@H](C(=O)Nc1nc2ccc(C#N)cc2n1C1CCC1)N(C)CC(F)(F)F [Example 22, (R)-N-(6-cyano-1-cyclobutyl-1H-benzo[d]imidazol-2-yl)-2-(methyl(2,2,2-trifluoroethyl)amino)propanamide] | +/−
7 | C[C@H](C(=O)Nc1nc2ccc(C#N)cc2n1C1CCC1)C(C)(C)C [Example 23, (S)-N-(6-cyano-1-cyclobutyl-1H-benzo[d]imidazol-2-yl)-2,3,3-trimethylbutanamide] | ++
8 | CN(C)C(CC(=O)Nc1nc2ccc(C#N)cc2n1C1CCC1)C(F)(F)F (stereo not drawn) [Example 24, N-(6-cyano-1-cyclobutyl-1H-benzo[d]imidazol-2-yl)-3-(dimethylamino)-4,4,4-trifluorobutanamide] | +
9 | N#Cc1ccc2nc(NC(=O)C[C@@H](O)c3ccccc3)n(C3CCC3)c2c1 [Example 25, (R)-N-(6-cyano-1-cyclobutyl-1H-benzo[d]imidazol-2-yl)-3-hydroxy-3-phenylpropanamide] | +/−
10 | N#Cc1ccc2nc(NC(=O)C[C@H](O)c3ccccc3)n(C3CCC3)c2c1 [Example 26, (S)-N-(6-cyano-1-cyclobutyl-1H-benzo[d]imidazol-2-yl)-3-hydroxy-3-phenylpropanamide] | +/−
11 | C[C@H](C(=O)Nc1nc2ccc(C#N)cc2n1C1CCC1)C1(O)CCC1 [Example 27, (S)-N-(6-cyano-1-cyclobutyl-1H-benzo[d]imidazol-2-yl)-2-(1-hydroxycyclobutyl)propanamide] | +/−
12 | CC(O)(CC(=O)Nc1nc2ccc(C#N)cc2n1C1CCC1)C1CC1 (stereo not drawn) [Example 28, N-(6-cyano-1-cyclobutyl-1H-benzo[d]imidazol-2-yl)-3-cyclopropyl-3-hydroxybutanamide] | +/−
13 | C[C@](O)(CC(=O)Nc1nc2ccc(C#N)cc2n1C1CCC1)c1ccccc1 [Example 29, (S)-N-(6-cyano-1-cyclobutyl-1H-benzo[d]imidazol-2-yl)-3-hydroxy-3-phenylbutanamide] | +
14 | C[C@@](O)(CC(=O)Nc1nc2ccc(C#N)cc2n1C1CCC1)c1ccccc1 [Example 30, (R)-N-(6-cyano-1-cyclobutyl-1H-benzo[d]imidazol-2-yl)-3-hydroxy-3-phenylbutanamide] | +
15 | CC(C)(C)CC(=O)Nc1nc2ccc(C#N)cc2n1-c1ccc(F)cc1 [Example 31, N-(6-cyano-1-(4-fluorophenyl)-1H-benzo[d]imidazol-2-yl)-3,3-dimethylbutanamide] | +
16 | CC(C)[C@H](C)C(=O)Nc1nc2ccc(C#N)cc2n1-c1ccc(F)cc1 [Example 32, (S)-N-(6-cyano-1-(4-fluorophenyl)-1H-benzo[d]imidazol-2-yl)-2,3-dimethylbutanamide] | +
17 | CC1(C)C[C@@H]1C(=O)Nc1nc2ccc(C#N)cc2n1-c1ccc(F)cc1 [Example 33, (S)-N-(6-cyano-1-(4-fluorophenyl)-1H-benzo[d]imidazol-2-yl)-2,2-dimethylcyclopropane-1-carboxamide] | +
18 | CC(C)(C)CC(=O)Nc1nc2ccc(C(F)(F)F)cc2n1C1CCC1 [Example 34, N-(1-cyclobutyl-6-(trifluoromethyl)-1H-benzo[d]imidazol-2-yl)-3,3-dimethylbutanamide] | ++
19 | CC(C)(O)CC(=O)Nc1nc2ccc(C(F)(F)F)cc2n1C1CCC1 [Example 35, N-(1-cyclobutyl-6-(trifluoromethyl)-1H-benzo[d]imidazol-2-yl)-3-hydroxy-3-methylbutanamide] | +
20 | CC(C)[C@H](C)C(=O)Nc1nc2ccc(C(F)(F)F)cc2n1C1CCC1 [Example 36, (S)-N-(1-cyclobutyl-6-(trifluoromethyl)-1H-benzo[d]imidazol-2-yl)-2,3-dimethylbutanamide] | +
21 | CC1(C)C[C@@H]1C(=O)Nc1nc2ccc(C(F)(F)F)cc2n1C1CCC1 [Example 37, (S)-N-(1-cyclobutyl-6-(trifluoromethyl)-1H-benzo[d]imidazol-2-yl)-2,2-dimethylcyclopropane-1-carboxamide] | +
22 | O=C(Nc1nc2ccc(C(F)(F)F)cc2n1C1CCC1)C1CC(F)(F)C1 [Example 38, N-(1-cyclobutyl-6-(trifluoromethyl)-1H-benzo[d]imidazol-2-yl)-3,3-difluorocyclobutane-1-carboxamide] | +/−
23 | O=C(CC(C(F)(F)F)C(F)(F)F)Nc1nc2ccc(C(F)(F)F)cc2n1C1CCC1 [Example 39, N-(1-cyclobutyl-6-(trifluoromethyl)-1H-benzo[d]imidazol-2-yl)-4,4,4-trifluoro-3-(trifluoromethyl)butanamide] | +
24 | CC(C)[C@@H](C)C(=O)Nc1nc2ccc(C(F)(F)F)cc2n1C1CCC1 [Example 40, (R)-N-(1-cyclobutyl-6-(trifluoromethyl)-1H-benzo[d]imidazol-2-yl)-2,3-dimethylbutanamide] | +
25 | CC(C)(O)[C@H]1C[C@@H]1C(=O)Nc1nc2ccc(C(F)(F)F)cc2n1C1CCC1 [Example 41, (1S,2S)-N-(1-cyclobutyl-6-(trifluoromethyl)-1H-benzo[d]imidazol-2-yl)-2-(2-hydroxypropan-2-yl)cyclopropane-1-carboxamide] | +/−
26 | C[C@](O)(C(=O)Nc1nc2ccc(C(F)(F)F)cc2n1C1CCC1)C(F)(F)F [Example 42, (S)-N-(1-cyclobutyl-6-(trifluoromethyl)-1H-benzo[d]imidazol-2-yl)-3,3,3-trifluoro-2-hydroxy-2-methylpropanamide] | +/−
27 | O=C(CC1(O)CCC1)Nc1nc2ccc(C(F)(F)F)cc2n1C1CCC1 [Example 44, N-(1-cyclobutyl-6-(trifluoromethyl)-1H-benzo[d]imidazol-2-yl)-2-(1-hydroxycyclobutyl)acetamide] | +

Source: patent US12351559B2 (Biohaven Therapeutics Ltd., priority 2014, dated 2025)
